Results published in PubChem BioAssay (NCI).
“And” between values parts separate entries of the source, which are not always exact repeats. Equal entries are not always repeated.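 Exposure lasted 48 hours, with cells grown in 96-well plates and compounds tested at five concentrations. The concentration for 50% growth inhibition is given as GI50. TGI: concentration producing complete growth inhibition.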

Assays:
Experiment in all cases: inhibition of tumour cell growth, NCI panel, 48 h
[1] = test system: A498 renal
[2] = test system: CCRF-CEM leukemia
[3] = test system: HOP-92 NSCLC
[4] = test system: K-562 leukemia
[5] = test system: OVCAR-4 ovarian
[6] = test system: SK-MEL-2 melanoma
[7] = test system: SNB-19 CNS
[8] = test system: SR leukemia
[9] = test system: SW-620 colon
[10] = test system: MOLT-4 leukemia

Row | SMILES | GI50 [1] | TGI [1] | GI50 [2] | TGI [2] | GI50 [3] | TGI [3] | GI50 [4] | TGI [4] | GI50 [5] | TGI [5] | GI50 [6] | TGI [6] | GI50 [7] | TGI [7] | GI50 [8] | TGI [8] | GI50 [9] | TGI [9] | TGI [10] | GI50 [10]
1 | CCNCCNc1cc(-c2ccc(C#N)cc2)c(C#N)c2nc3ccccc3n12 | 3.73 µM | 11.9 µM | 2.49 µM | 9.9 µM | 2.21 µM | 4.5 µM | 3.13 µM | 18.2 µM | 2.54 µM | 8.74 µM | 3.2 µM | 10.4 µM | 4.69 µM | 17.4 µM | 2.59 µM | 6.74 µM | 2.68 µM | 11.1 µM | – | –
2 | N#Cc1c(-c2ccco2)cc(-c2ccccc2)[nH]c1=O | – | > 100 µM | – | > 100 µM | – | > 100 µM | – | > 100 µM | – | > 100 µM | – | – | – | > 100 µM | – | > 100 µM | – | > 100 µM | > 100 µM | –
3 | Cc1cc2c(cc1Cl)S/C(=C/C(=O)O)C(Nc1cccc3nsnc13)=NS2(=O)=O | > 100 µM | > 100 µM | 22.5 µM | > 81.9 µM | 28.2 µM | 62 µM | 70.1 µM | > 100 µM | 18.7 µM | 42.7 µM | > 58.6 µM | > 77.8 µM | > 52 µM | > 66.8 µM | 32.8 µM | > 100 µM | 44.8 µM | > 67.6 µM | > 59.4 µM | 17.9 µM
4 | Cc1ccc(C)c(N2C(=O)C(=O)C(c3nc4ccccc4s3)C(=Nc3cccc4c(=O)[nH][nH]c(=O)c34)C2=O)c1 (stereo unspecified) | – | > 100 µM | – | > 100 µM | – | > 100 µM | – | > 100 µM | – | > 100 µM | – | > 100 µM | – | > 100 µM | – | > 100 µM | – | > 100 µM | > 100 µM | –
5 | COc1ccc(Nc2nccc(N3CCN(c4c5ccc(Cl)cc5nc5ccc(OC)cc45)CC3)n2)cc1 | 2.4 µM | 31 µM | 2.77 µM | > 100 µM | 3.55 µM | 77.1 µM | 3.06 µM | > 100 µM | 18.2 µM | > 100 µM | – | – | 18.5 µM | > 100 µM | 2.92 µM | > 100 µM | 7.19 µM | > 100 µM | > 100 µM | 3.05 µM
6 | COc1cc2nc(-c3ccc(C(F)(F)F)cc3)cc(OCCCN3CCCC3)c2cc1OC | 1.07 µM | 4.31 µM | 1.08 µM | 9.92 µM | 0.351 µM | 5.68 µM | 0.445 µM | 4.54 µM | 3.1 µM | > 86.7 µM | 3.41 µM | 11.2 µM | 5.23 µM | 21.5 µM | 0.207 µM | – | 2.59 µM | 29.6 µM | 5.09 µM | 1.42 µM
7 | Cc1ccccc1/C=C/C(=O)c1ccccc1 | – | 30.2 µM | – | 69.3 µM | – | 37.6 µM | – | 49.7 µM | – | 33.2 µM | – | > 10 µM | – | 30.3 µM | – | > 100 µM | – | > 10 µM | 60.7 µM | –
8 | CC(C)(C)OC(=O)NC1CCCC1=O (stereo unspecified) | – | > 100 µM | – | > 100 µM | – | > 100 µM | – | > 100 µM | – | > 100 µM | – | > 100 µM | – | > 100 µM | – | > 100 µM | – | > 100 µM | > 100 µM | –
9 | CC1OC(c2ccc3c(c2O)C(=O)C2=C(C3=O)C3(O)C(=O)CC(C)(O)CC3(O)C=C2)CC(O)C1O (stereo unspecified) | – | 34.5 µM | – | 5.27 µM | – | 30.7 µM | – | 14.3 µM | – | 27.2 µM | – | 42.4 µM | – | 58.8 µM | – | 33.5 µM | – | 21.7 µM | 15.3 µM | –
10 | Cc1cccc(/C(Br)=C2/OC(=O)c3ccccc32)c1 | – | > 100 µM | – | > 100 µM | – | > 100 µM | – | – | – | > 100 µM | – | – | – | – | – | > 100 µM | – | > 100 µM | > 100 µM | –
11 | Cc1ccc(NC(=O)/C(Cc2cc(=O)oc3cc(O)ccc23)=N\NC(=O)C[N+](C)(C)C)cc1C | – | > 100 µM | – | > 100 µM | – | > 100 µM | – | > 100 µM | – | > 100 µM | – | > 100 µM | – | > 100 µM | – | > 100 µM | – | > 100 µM | > 100 µM | –
12 | CCN(CC)c1ccc(/C=C/C2=[N+](C)c3ccccc3C2(C)C)c(C)c1 | 0.11 µM | 4.02 µM | 0.0271 µM | 4.68 µM | 0.0217 µM | 0.148 µM | 0.0377 µM | 12.2 µM | 0.0524 µM | 11.2 µM | 0.0792 µM | 0.582 µM | 0.0684 µM | 9.36 µM | 0.0275 µM | 1.71 µM | 0.0703 µM | 12.8 µM | 1.55 µM | 0.0512 µM
13 | O=C(c1cccs1)C1NO[N+]([O-])=C1c1cccs1 (stereo unspecified) | 1.95 µM | 6.3 µM | 1.23 µM | 3.54 µM | 1.65 µM | 3.59 µM | 3.02 µM | > 100 µM | 2.13 µM | 4.97 µM | 11.2 µM | 24.5 µM | 29.9 µM | > 79.2 µM | 2.08 µM | 4.73 µM | 1.54 µM | 3.01 µM | 9.19 µM | 2.86 µM
14 | O=C(NCCN1CCNCC1)c1ccc(Nc2nc3ccccc3c3occc23)cc1 | 16.2 µM | 36.3 µM | 10.3 µM | 28.5 µM | 1.24 µM | 15.8 µM | 14.4 µM | 40.1 µM | 14.3 µM | 33.3 µM | 18.3 µM | 36.4 µM | 15.5 µM | > 100 µM | 25 µM | 43.8 µM | 3.6 µM | 17.4 µM | 36.9 µM | 20.4 µM
15 | CCOc1ccc(Nc2c3ccccc3nc3ccccc23)cc1 | 0.307 µM and 0.332 µM | 6.81 µM and 3.02 µM | 0.585 µM and 0.739 µM | > 31.7 µM and 3.26 µM | 0.299 µM and 1.06 µM | 3.16 µM and 9.42 µM | 0.316 µM and 0.0616 µM | – | 0.748 µM and 1.35 µM | 7.36 µM and 10.8 µM | 0.402 µM and 0.413 µM | 3.76 µM and 1.69 µM | 0.817 µM and 0.556 µM | 13.8 µM and 15.3 µM | 0.307 µM and 0.042 µM | 6.89 µM and 1.11 µM | 0.369 µM and 0.339 µM | 5.2 µM and 4.02 µM | 5.59 µM and 1.27 µM | 0.476 µM and 0.258 µM
16 | COc1ccc(-c2c(C3=NCCCN3)nnn2-c2ccc([N+](=O)[O-])cc2)cc1 | – | > 100 µM | – | > 100 µM | – | > 100 µM | – | > 100 µM | – | > 100 µM | – | > 100 µM | – | > 100 µM | – | > 100 µM | – | > 100 µM | > 100 µM | –
17 | [2H]c1nc(=Nc2cc(NC(=O)C=C)c(N(C)CCN(C)C)cc2OC)[nH]c(-c2cn(C([2H])([2H])[2H])c3ccccc23)c1[2H] | 1.21 µM | 4.56 µM | – | – | 1.04 µM | 2.45 µM | 1.29 µM | 3.78 µM | 3.27 µM | 17.3 µM | 1.73 µM | 3.65 µM | 1.4 µM | 3.05 µM | 1.23 µM | 4.02 µM | 1.86 µM | 3.87 µM | 2.86 µM | 1.14 µM
18 | O=C(Cl)C1=C(c2ccccc2)C1c1ccccc1 (stereo unspecified) | – | > 100 µM | – | > 100 µM | – | > 100 µM | – | > 100 µM | – | > 100 µM | – | > 100 µM | – | > 100 µM | – | > 100 µM | – | > 100 µM | > 100 µM | –
19 | Fc1ccc2nc(-c3cc(-c4ccc5c(c4)OCO5)n[nH]3)[nH]c2c1 | 3.27 µM | > 100 µM | 2.62 µM | > 44.7 µM | 1.87 µM | 8.79 µM | 4.35 µM | > 100 µM | 1.37 µM | 4.8 µM | 2.87 µM | 17.1 µM | > 32.5 µM | > 100 µM | 3.58 µM | > 100 µM | 5.68 µM | > 43.1 µM | > 69.4 µM | 2.56 µM
20 | Cc1c(C(=O)/C=C/c2ccccc2[N+](=O)[O-])[n+](=O)c2ccccc2n1[O-] | – | 26 µM | – | – | – | 27.4 µM | – | 30.6 µM | – | 22.8 µM | – | 24.1 µM | – | 33.4 µM | – | 31.6 µM | – | 17.5 µM | 29.3 µM | –
21 | O=C(O)c1ccccc1C(=O)c1ccc2c(c1)Cc1ccccc1-2 | – | > 100 µM | – | – | – | > 100 µM | – | > 100 µM | – | > 100 µM | – | > 100 µM | – | > 100 µM | – | > 100 µM | – | > 100 µM | > 100 µM | –
22 | CCOC(OC1=C(C#N)CCCC1)C(CC)[Se]c1ccccc1 (stereo unspecified) | – | > 100 µM | – | 56.4 µM | – | 61.3 µM | – | > 100 µM | – | 43.2 µM | – | 80.8 µM | – | > 100 µM | – | 31 µM | – | – | 55.8 µM | –
23 | COc1cccc2c(=O)c3c(sc12)c(NCCCNCCO)nc1ccccc13 | 1.56 µM | 3.3 µM | 1.53 µM | 3.18 µM | 1.32 µM | 13.1 µM | 1.42 µM | 3.68 µM | 1.63 µM | 3.38 µM | 1.83 µM | 3.74 µM | – | – | 1.45 µM | 3.83 µM | 1.38 µM | 2.9 µM | 3.31 µM | 1.58 µM
24 | CSc1ccc(N(C)c2nc(C)nc3c2CCC3)cc1 | < 0.01 µM | < 0.01 µM | < 0.01 µM | 94.7 µM | – | – | < 0.01 µM | > 100 µM | < 0.01 µM | > 100 µM | < 0.01 µM | 38.8 µM | < 0.01 µM | > 100 µM | < 0.01 µM | 11.6 µM | < 0.01 µM | > 100 µM | 25.4 µM | < 0.01 µM
